Results on six compounds are retold here after US20240360178A1, “MACROCYCLIC IMMUNOMODULATORS” (Bristol-Myers Squibb Company, priority 2021, published 2024).

The structures appear in SMILES notation. Positions of bridges follow the written chain, without caps; N, C: chain ends. Non-standard residues stand in square brackets, D forms with d. Residues, ends and D or L forms follow the SMILES beside them. ξ: configuration not given here. Bip = N[C@@H](Cc1ccc(-c2ccccc2)cc1)C(=O)O; NMeF = CN[C@@H](Cc1ccccc1)C(=O)O; ξR = N=C(N)NCCCC(N)C(=O)O; NMeA = CN[C@@H](C)C(=O)O; ξE = NC(CCC(=O)O)C(=O)O

T1 sequence (Q15116 25-288): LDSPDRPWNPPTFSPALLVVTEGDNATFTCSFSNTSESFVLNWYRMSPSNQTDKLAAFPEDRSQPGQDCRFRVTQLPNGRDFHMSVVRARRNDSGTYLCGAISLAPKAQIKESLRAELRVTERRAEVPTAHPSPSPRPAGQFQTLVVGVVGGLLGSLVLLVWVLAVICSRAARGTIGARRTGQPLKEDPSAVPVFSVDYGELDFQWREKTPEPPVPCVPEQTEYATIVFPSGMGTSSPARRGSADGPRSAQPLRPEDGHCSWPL

This test has as its target T1, human PD-1 (Jurkat-PD-1 cells) / PE-labeled human PD-L1-Ig (Homo sapiens, UniProt Q15116).
T1 construct: expressed in transfected cells; host or cells: Jurkat cell line over-expressing human PD-1
In words: Jurkat-PD-1 Cell Binding High-Content Screening Assay (CBA); Jurkat hPD1-PDL1 assay. Conditions: Jurkat cell line over-expressing human PD-1; PE-labeled PD-L1-Ig 20 nM final; compound incubated 2 hours at 37° C.; read-out: Jurkat HPD1-PDL1 IC50. Put shortly:
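Jurkat cells overexpressing human PD-1 (8×10^3 per well, DMEM with 10% FCS) were preincubated with compound for 2 hours at 37° C. PE-labeled human PD-L1-Ig was then added at 20 nM final. Binding was quantified by high-content imaging.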
As a reminder, the IC50 is the concentration that gives 50% inhibition. With `CC(C)C[C@@H]1NC(=O)[C@H](CCCNC(=N)N)NC(=O)[C@H](Cc2ccccc2)N(C)C(=O)[C@H](C)N(C)C(=O)[C@H](CCC(=O)O)NC(=O)[C@H](Cc2ccc(-c3ccccc3)cc2)NC(=O)[C@H](C(C)C)NC(=O)[C@H](Cc2c[nH]c3ccccc23)NC(=O)[C@H](CC(=O)O)NC(=O)[C@H](Cc2ccc(O)cc2)NC(=O)[C@H](Cc2ccccc2)NC(=O)CSC[C@@H](C(=O)NCC(N)=O)NC(=O)[C@H](CO)NC(=O)[C@H](C(C)C)NC1=O` [Example 1214] ({CH2CO}-FYDWV[Bip]E[NMeA][NMeF]RLVSCG-NH2; thioether N-14), the half-maximal inhibitory concentration (IC50) turned out to be 60 nM.
`CC(C)C[C@@H]1NC(=O)C(CCCNC(=N)N)NC(=O)[C@H](Cc2ccccc2)N(C)C(=O)[C@H](CCCCN)NC(=O)[C@H](CCCNC(=N)N)NC(=O)[C@H](Cc2ccc(-c3ccccc3)cc2)NC(=O)[C@H](C(C)C)NC(=O)[C@H](Cc2c[nH]c3ccccc23)NC(=O)[C@H](CC(=O)O)NC(=O)[C@H](Cc2ccc(O)cc2)NC(=O)[C@H](Cc2ccccc2)NC(=O)CSC[C@@H](C(=O)NCC(N)=O)NC(=O)[C@H](CO)NC(=O)[C@H](C(C)C)NC1=O` (stereo partly drawn) [Example 1216] ({CH2CO}-FYDWV[Bip]RK[NMeF][ξR]LVSCG-NH2; thioether N-14): the half-maximal inhibitory concentration (IC50) was determined as 90 nM.
For `CC(C)C[C@@H]1NC(=O)C(CCCNC(=N)N)NC(=O)[C@H](Cc2ccccc2)N(C)C(=O)[C@H](C)N(C)C(=O)[C@H](CCCNC(=N)N)NC(=O)[C@H](Cc2ccc(-c3ccccc3)cc2)NC(=O)[C@H](C(C)C)NC(=O)[C@H](Cc2c[nH]c3ccccc23)NC(=O)[C@H](CC(=O)O)NC(=O)[C@H](Cc2ccc(O)cc2)NC(=O)[C@H](Cc2ccccc2)NC(=O)CSC[C@@H](C(=O)NCC(N)=O)NC(=O)[C@H](CO)NC(=O)[C@H](CCC(=O)O)NC1=O` (stereo partly drawn) [Example 1218] ({CH2CO}-FYDWV[Bip]R[NMeA][NMeF][ξR]LESCG-NH2; thioether N-14), the half-maximal inhibitory concentration (IC50) turned out to be 230 nM.
Consider `CC(C)C[C@@H]1NC(=O)C(CCCNC(=N)N)NC(=O)[C@H](Cc2ccccc2)N(C)C(=O)[C@H](C)N(C)C(=O)[C@H](CCCNC(=N)N)NC(=O)[C@H](Cc2ccc(-c3ccccc3)cc2)NC(=O)[C@H](C(C)C)NC(=O)[C@H](Cc2c[nH]c3ccccc23)NC(=O)[C@H](CC(=O)O)NC(=O)[C@H](Cc2ccc(O)cc2)NC(=O)[C@H](Cc2ccccc2)NC(=O)CSC[C@@H](C(=O)NCC(N)=O)NC(=O)[C@H](CCC(=O)O)NC(=O)[C@H](C(C)C)NC1=O` (stereo partly drawn) [Example 1219] ({CH2CO}-FYDWV[Bip]R[NMeA][NMeF][ξR]LVECG-NH2; thioether N-14), for which the IC50 is 610 nM.
On to `CC(C)C[C@@H]1NC(=O)C(CCCNC(=N)N)NC(=O)[C@H](Cc2ccccc2)N(C)C(=O)[C@H](C)N(C)C(=O)[C@H](CCCNC(=N)N)NC(=O)[C@H](Cc2ccc(-c3ccccc3)cc2)NC(=O)[C@H](C(C)C)NC(=O)[C@H](Cc2c[nH]c3ccccc23)NC(=O)[C@H](CC(=O)O)NC(=O)[C@H](Cc2ccc(O)cc2)NC(=O)[C@H](Cc2ccccc2)NC(=O)CSC[C@@H](C(=O)NCC(N)=O)NC(=O)[C@H](CCCNC(=N)N)NC(=O)[C@H](C(C)C)NC1=O` (stereo partly drawn) [Example 1220] ({CH2CO}-FYDWV[Bip]R[NMeA][NMeF][ξR]LVRCG-NH2; thioether N-14), for which the half-inhibitory concentration (IC50) came to 720 nM.
As to `CC(C)C[C@@H]1NC(=O)C(CCC(=O)O)NC(=O)[C@H](Cc2ccccc2)N(C)C(=O)[C@H](C)N(C)C(=O)[C@H](CCCNC(=N)N)NC(=O)[C@H](Cc2ccc(-c3ccccc3)cc2)NC(=O)[C@H](C(C)C)NC(=O)[C@H](Cc2c[nH]c3ccccc23)NC(=O)[C@H](CC(=O)O)NC(=O)[C@H](Cc2ccc(O)cc2)NC(=O)[C@H](Cc2ccccc2)NC(=O)CSC[C@@H](C(=O)NCC(N)=O)NC(=O)[C@H](CO)NC(=O)[C@H](C(C)C)NC1=O` (stereo partly drawn) [Example 1221] ({CH2CO}-FYDWV[Bip]R[NMeA][NMeF][ξE]LVSCG-NH2; thioether N-14), the half-inhibitory concentration (IC50) came to 500 nM.
